From patent US6638973B2, “Taxane formulations” (FSU Research Foundation, Inc., priority 2000, dated 2003) come the findings set out here.

For the first assay, the system named is HCT116 cells. In words: In vitro cytotoxicity measured by the cell colony formation assay. Type of assay: cell-based. Conditions: HCT116 cells, 72 h incubation with drug, colonies counted after 7 days; ID50 = drug concentration producing 50% inhibition of colony formation; read-out: IN VITRO ID 50 (nm) HCT116. An outline of the steps: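 Colony-forming survival was scored 7 days after a 72 h, 37 °C compound exposure followed by washout into fresh medium.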
Consider `COC(=O)O[C@H]1C(=O)[C@@]2(C)C([C@H](OC(=O)c3ccccc3)[C@]3(O)C[C@H](OC(=O)[C@H](O)[C@H](C=C(C)C)NC(=O)OC(C)(C)C)C(C)=C1C3(C)C)[C@]1(OC(C)=O)CO[C@@H]1C[C@@H]2O` (stereo partly shown) [Compound 1999], for which the IC50 was below 1 nM.
Consider `COC(=O)O[C@H]1C(=O)[C@@]2(C)C([C@H](OC(=O)c3ccccc3)[C@]3(O)C[C@H](OC(=O)[C@H](O)[C@@H](NC(=O)OC(C)(C)C)c4ccccn4)C(C)=C1C3(C)C)[C@]1(OC(C)=O)CO[C@@H]1C[C@@H]2O` (stereo partly shown) [Compound 2002], for which the IC50 was below 1 nM.
In the case of `COC(=O)O[C@H]1C(=O)[C@@]2(C)C([C@H](OC(=O)c3ccccc3)[C@]3(O)C[C@H](OC(=O)[C@H](O)[C@@H](NC(=O)OC(C)(C)C)c4cccnc4)C(C)=C1C3(C)C)[C@]1(OC(C)=O)CO[C@@H]1C[C@@H]2O` (stereo partly shown) [Compound 2011], the IC50 is below 10 nM.
As to `COC(=O)O[C@H]1C(=O)[C@@]2(C)C([C@H](OC(=O)c3ccccc3)[C@]3(O)C[C@H](OC(=O)[C@H](O)[C@@H](NC(=O)OC(C)(C)C)c4ccncc4)C(C)=C1C3(C)C)[C@]1(OC(C)=O)CO[C@@H]1C[C@@H]2O` (stereo partly shown) [Compound 2020], the IC50 is below 1 nM.
With `COC(=O)O[C@H]1C(=O)[C@@]2(C)C([C@H](OC(=O)c3ccccc3)[C@]3(O)C[C@H](OC(=O)[C@H](O)[C@@H](NC(=O)OC(C)(C)C)c4ccoc4)C(C)=C1C3(C)C)[C@]1(OC(C)=O)CO[C@@H]1C[C@@H]2O` (stereo partly shown) [Compound 2032], the IC50 is below 1 nM.
`COC(=O)O[C@H]1C(=O)[C@@]2(C)C([C@H](OC(=O)c3ccccc3)[C@]3(O)C[C@H](OC(=O)[C@H](O)[C@@H](NC(=O)OC(C)(C)C)c4cccs4)C(C)=C1C3(C)C)[C@]1(OC(C)=O)CO[C@@H]1C[C@@H]2O` (stereo partly shown) [Compound 2044]: the IC50 is below 1 nM.
In the case of `COC(=O)O[C@H]1C(=O)[C@@]2(C)C([C@H](OC(=O)c3ccccc3)[C@]3(O)C[C@H](OC(=O)[C@H](O)[C@@H](NC(=O)OC(C)(C)C)c4ccsc4)C(C)=C1C3(C)C)[C@]1(OC(C)=O)CO[C@@H]1C[C@@H]2O` (stereo partly shown) [Compound 2050], the IC50 was below 1 nM.
With `COC(=O)O[C@H]1C(=O)[C@@]2(C)C([C@H](OC(=O)c3ccccc3)[C@]3(O)C[C@H](OC(=O)[C@H](O)[C@@H](NC(=O)OC(C)(C)C)C(C)C)C(C)=C1C3(C)C)[C@]1(OC(C)=O)CO[C@@H]1C[C@@H]2O` (stereo partly shown) [Compound 2060], the IC50 is below 10 nM.
For `COC(=O)O[C@H]1C(=O)[C@@]2(C)C([C@H](OC(=O)c3ccccc3)[C@]3(O)C[C@H](OC(=O)[C@H](O)[C@@H](NC(=O)OC(C)(C)C)C(C)C)C(C)=C1C3(C)C)[C@]1(OC(C)=O)CO[C@@H]1C[C@@H]2O` (stereo partly shown) [Compound 2062], the IC50 is below 10 nM.
Same read-out and setting: in the case of `COC(=O)O[C@H]1C(=O)[C@@]2(C)C([C@H](OC(=O)c3ccccc3)[C@]3(O)C[C@H](OC(=O)[C@H](O)[C@@H](NC(=O)OC(C)(C)C)C4CCC4)C(C)=C1C3(C)C)[C@]1(OC(C)=O)CO[C@@H]1C[C@@H]2O` (stereo partly shown) [Compound 2077] it was below 10 nM.
As to `COC(=O)O[C@H]1C(=O)[C@@]2(C)C([C@H](OC(=O)c3ccccc3)[C@]3(O)C[C@H](OC(=O)[C@H](O)[C@@H](NC(=O)OC(C)(C)C)c4ccc([N+](=O)[O-])cc4)C(C)=C1C3(C)C)[C@]1(OC(C)=O)CO[C@@H]1C[C@@H]2O` (stereo partly shown) [Compound 2088], the IC50 is below 1 nM.
As for `COC(=O)O[C@H]1C(=O)[C@@]2(C)C([C@H](OC(=O)c3ccccc3)[C@]3(O)C[C@H](OC(=O)[C@H](O)[C@@H](NC(=O)OC(C)(C)C)c4ccccc4)C(C)=C1C3(C)C)[C@]1(OC(C)=O)CO[C@@H]1C[C@@H]2O` (stereo partly shown) [Compound 2092], the IC50 is below 1 nM.

Still in this assay, the particulars now being: HCT116 colony formation; 72 h drug incubation, colonies counted after 7 days; Example 10, C-10 ester/C-7 hydroxy taxanes; read-out: IN VITRO ID 50 (nm) HCT116.
As to `CC(=O)OC12COC1CC(O)C1(C)C(=O)C(OC(=O)c3cccs3)C3=C(C)C(OC(=O)C(O)C(NC(=O)OC(C)(C)C)c4cccs4)CC(O)(C(OC(=O)c4ccccc4)C21)C3(C)C` (stereo not shown) [Compound 1900], the IC50 was below 1 nM.
Consider `CC(=O)OC12COC1CC(O)C1(C)C(=O)C(OC(=O)c3cccs3)C3=C(C)C(OC(=O)C(O)C(NC(=O)OC(C)(C)C)c4ccc([N+](=O)[O-])cc4)CC(O)(C(OC(=O)c4ccccc4)C21)C3(C)C` (stereo not shown) [Compound 1911], for which the IC50 was below 10 nM.
Turning to `CC(=O)OC12COC1CC(O)C1(C)C(=O)C(OC(=O)c3cccs3)C3=C(C)C(OC(=O)C(O)C(NC(=O)OC(C)(C)C)c4ccoc4)CC(O)(C(OC(=O)c4ccccc4)C21)C3(C)C` (stereo not shown) [Compound 1923], the IC50 was below 1 nM.
As for `CC(=O)OC12COC1CC(O)C1(C)C(=O)C(OC(=O)c3cccs3)C3=C(C)C(OC(=O)C(O)C(NC(=O)OC(C)(C)C)c4ccsc4)CC(O)(C(OC(=O)c4ccccc4)C21)C3(C)C` (stereo not shown) [Compound 1939], the IC50 was below 1 nM.
On to `CC(=O)OC12COC1CC(O)C1(C)C(=O)C(OC(=O)c3cccs3)C3=C(C)C(OC(=O)C(O)C(NC(=O)OC(C)(C)C)c4cccnc4)CC(O)(C(OC(=O)c4ccccc4)C21)C3(C)C` (stereo not shown) [Compound 1948], for which the IC50 was below 10 nM.
The same measure, in the same setting: the value for `CC(=O)OC12COC1CC(O)C1(C)C(=O)C(OC(=O)c3cccs3)C3=C(C)C(OC(=O)C(O)C(NC(=O)OC(C)(C)C)c4ccncc4)CC(O)(C(OC(=O)c4ccccc4)C21)C3(C)C` (stereo not shown) [Compound 1954] was below 1 nM; that for `CC(=O)OC12COC1CC(O)C1(C)C(=O)C(OC(=O)c3cccs3)C3=C(C)C(OC(=O)C(O)C(NC(=O)OC(C)(C)C)C(C)C)CC(O)(C(OC(=O)c4ccccc4)C21)C3(C)C` (stereo not shown) [Compound 1964] was below 10 nM.
Consider `CC(=O)OC12COC1CC(O)C1(C)C(=O)C(OC(=O)c3cccs3)C3=C(C)C(OC(=O)C(O)C(NC(=O)OC(C)(C)C)C4CCC4)CC(O)(C(OC(=O)c4ccccc4)C21)C3(C)C` (stereo not shown) [Compound 1970], for which the IC50 is below 10 nM.
Take `CC(=O)OC12COC1CC(O)C1(C)C(=O)C(OC(=O)c3cccs3)C3=C(C)C(OC(=O)C(O)C(NC(=O)OC(C)(C)C)c4ccccc4)CC(O)(C(OC(=O)c4ccccc4)C21)C3(C)C` (stereo not shown) [Compound 1988]: the IC50 was below 10 nM.
On to `CC(=O)OC12COC1CC(O)C1(C)C(=O)C(OC(=O)c3ccco3)C3=C(C)C(OC(=O)C(O)C(C=C(C)C)NC(=O)OC(C)(C)C)CC(O)(C(OC(=O)c4ccccc4)C21)C3(C)C` (stereo not shown) [Compound 2101], for which the IC50 is below 1 nM.
In the case of `CC(=O)OC12COC1CC(O)C1(C)C(=O)C(OC(=O)c3ccco3)C3=C(C)C(OC(=O)C(O)C(NC(=O)OC(C)(C)C)c4ccccn4)CC(O)(C(OC(=O)c4ccccc4)C21)C3(C)C` (stereo not shown) [Compound 2111], the IC50 is below 1 nM.
`CC(=O)OC12COC1CC(O)C1(C)C(=O)C(OC(=O)c3ccco3)C3=C(C)C(OC(=O)C(O)C(NC(=O)OC(C)(C)C)c4cccnc4)CC(O)(C(OC(=O)c4ccccc4)C21)C3(C)C` (stereo not shown) [Compound 2124]: the IC50 is below 10 nM.
Take `CC(=O)OC12COC1CC(O)C1(C)C(=O)C(OC(=O)c3ccco3)C3=C(C)C(OC(=O)C(O)C(NC(=O)OC(C)(C)C)c4ccncc4)CC(O)(C(OC(=O)c4ccccc4)C21)C3(C)C` (stereo not shown) [Compound 2132]: the IC50 is below 1 nM.
The same measure, in the same setting: in the case of `CC(=O)OC12COC1CC(O)C1(C)C(=O)C(OC(=O)c3ccco3)C3=C(C)C(OC(=O)C(O)C(NC(=O)OC(C)(C)C)c4ccco4)CC(O)(C(OC(=O)c4ccccc4)C21)C3(C)C` (stereo not shown) [Compound 2142] it was below 1 nM; in that of `CC(=O)OC12COC1CC(O)C1(C)C(=O)C(OC(=O)c3ccco3)C3=C(C)C(OC(=O)C(O)C(NC(=O)OC(C)(C)C)c4ccoc4)CC(O)(C(OC(=O)c4ccccc4)C21)C3(C)C` (stereo not shown) [Compound 2159], below 1 nM.
Consider `CC(=O)OC12COC1CC(O)C1(C)C(=O)C(OC(=O)c3ccco3)C3=C(C)C(OC(=O)C(O)C(NC(=O)OC(C)(C)C)c4cccs4)CC(O)(C(OC(=O)c4ccccc4)C21)C3(C)C` (stereo not shown) [Compound 2164], for which the IC50 is below 1 nM.
As for `CC(=O)OC12COC1CC(O)C1(C)C(=O)C(OC(=O)c3ccco3)C3=C(C)C(OC(=O)C(O)C(NC(=O)OC(C)(C)C)c4ccsc4)CC(O)(C(OC(=O)c4ccccc4)C21)C3(C)C` (stereo not shown) [Compound 2173], the IC50 was below 1 nM.
Same read-out and setting: the value for `CC(=O)OC12COC1CC(O)C1(C)C(=O)C(OC(=O)c3ccco3)C3=C(C)C(OC(=O)C(O)C(NC(=O)OC(C)(C)C)C(C)C)CC(O)(C(OC(=O)c4ccccc4)C21)C3(C)C` (stereo not shown) [Compound 2181] was below 10 nM; that for `CC(=O)OC12COC1CC(O)C1(C)C(=O)C(OC(=O)c3ccco3)C3=C(C)C(OC(=O)C(O)C(NC(=O)OC(C)(C)C)C4CCC4)CC(O)(C(OC(=O)c4ccccc4)C21)C3(C)C` (stereo not shown) [Compound 2199] was below 10 nM.
As to `CC(=O)OC12COC1CC(O)C1(C)C(=O)C(OC(=O)c3ccco3)C3=C(C)C(OC(=O)C(O)C(NC(=O)OC(C)(C)C)c4ccc([N+](=O)[O-])cc4)CC(O)(C(OC(=O)c4ccccc4)C21)C3(C)C` (stereo not shown) [Compound 2202], the IC50 is below 1 nM.
With `CC(=O)OC12COC1CC(O)C1(C)C(=O)C(OC(=O)c3ccco3)C3=C(C)C(OC(=O)C(O)C(NC(=O)OC(C)(C)C)c4ccccc4)CC(O)(C(OC(=O)c4ccccc4)C21)C3(C)C` (stereo not shown) [Compound 2212], the IC50 was below 10 nM.
Still for that read-out and setting: in the case of `CC(=O)OC12COC1CC(O)C1(C)C(=O)C(OC(=O)C(C)C)C3=C(C)C(OC(=O)C(O)C(C=C(C)C)NC(=O)OC(C)(C)C)CC(O)(C(OC(=O)c4ccccc4)C21)C3(C)C` (stereo not shown) [Compound 2226] it was below 1 nM; in that of `CC(=O)OC12COC1CC(O)C1(C)C(=O)C(OC(=O)C(C)C)C3=C(C)C(OC(=O)C(O)C(NC(=O)OC(C)(C)C)c4ccccn4)CC(O)(C(OC(=O)c4ccccc4)C21)C3(C)C` (stereo not shown) [Compound 2238], below 1 nM; in that of `CC(=O)O[C@@]12CO[C@@H]1C[C@H](O)[C@@]1(C)C(=O)[C@H](OC(=O)C(C)C)C3=C(C)[C@@H](OC(=O)[C@H](O)[C@@H](NC(=O)OC(C)(C)C)c4cccnc4)C[C@@](O)([C@@H](OC(=O)c4ccccc4)C12)C3(C)C` (stereo partly shown) [Compound 2242], below 10 nM.
`CC(=O)O[C@@]12CO[C@@H]1C[C@H](O)[C@@]1(C)C(=O)[C@H](OC(=O)C(C)C)C3=C(C)[C@@H](OC(=O)[C@H](O)[C@@H](NC(=O)OC(C)(C)C)c4ccncc4)C[C@@](O)([C@@H](OC(=O)c4ccccc4)C12)C3(C)C` (stereo partly shown) [Compound 2255]: the IC50 is below 1 nM.
